From patent publication US12600732B2, “Bifunctional compounds for degrading BTK via ubiquitin proteosome pathway” (NURIX THERAPEUTICS, INC., priority 2019, dated 2026) come the findings set out here.

One series deals with T1, ITK (Homo sapiens, UniProt Q08881).
T1 construct: endogenous in cells; host or cells: MOLT4, TMD8
T1 sequence (Q08881 1-620): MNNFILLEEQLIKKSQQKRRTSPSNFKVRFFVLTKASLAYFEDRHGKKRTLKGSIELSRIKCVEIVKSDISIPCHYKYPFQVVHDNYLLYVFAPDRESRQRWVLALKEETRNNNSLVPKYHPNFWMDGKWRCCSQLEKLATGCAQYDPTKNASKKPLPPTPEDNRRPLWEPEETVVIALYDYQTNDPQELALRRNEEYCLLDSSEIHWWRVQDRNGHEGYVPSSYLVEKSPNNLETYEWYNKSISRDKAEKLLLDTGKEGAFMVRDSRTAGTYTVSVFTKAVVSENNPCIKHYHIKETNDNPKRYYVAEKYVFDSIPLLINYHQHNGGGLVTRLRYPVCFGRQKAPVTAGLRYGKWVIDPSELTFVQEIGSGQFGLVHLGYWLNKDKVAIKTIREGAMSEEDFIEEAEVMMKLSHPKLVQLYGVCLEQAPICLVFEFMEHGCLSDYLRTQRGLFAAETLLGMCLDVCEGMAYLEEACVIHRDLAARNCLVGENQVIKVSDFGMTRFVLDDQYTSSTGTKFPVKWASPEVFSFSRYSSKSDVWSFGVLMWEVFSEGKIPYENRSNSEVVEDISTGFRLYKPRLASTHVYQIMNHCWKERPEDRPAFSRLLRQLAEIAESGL
The experiment in a line: ITK levels in MOLT4 and TMD8 cells (FIGS. 10-12). It is filed as cell-based. Conditions: for effect on ITK levels in cells: MOLT4 and TMD8 cells, FIGS. 11A and 11B. The source says: FIGS. 10A and 10B provide effects of compounds 73, 72, 121, and 44, and control compounds, on neo-substrate and ITK or BTK levels after twenty-four hours in MOLT4 cells (FIG. 10A) and TMD8 cells (FIG. 10B).
FIGS. 11A and 11B provide effects of compounds 44, 72, and 149, and control compounds, on CRBN neo-substrate and ITK levels in MOLT4 cells (FIG. 11A) and TMD8 cells (FIG. 11B).
FIG. 12 provides effects of compounds 130, 149, and 44 on ITK levels and IMiD activity.

The test system of series [1] is B cell receptor (BCR) signaling. The experiment in a line: B cell activation assay (flow cytometry), mouse B cells. It is filed as cell-based. The note with it: treatment 4 h, IgM stimulation 18 h. In outline:
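Compound was present throughout BCR stimulation. Live single lymphocytes were gated into CD20+CD3− B cells and CD3+CD20− T cells by flow cytometry. Geometric MFI of CD86 and CD69 was measured per population, with unstimulated samples defining baseline activation.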
In general terms: In flow cytometry, cells or beads pass a laser one at a time.

A further series deals with primary human T cells. The series can be described thus: T cell activation assay, IL-2 secretion (ELISA). It is filed as cell-based. Conditions: for IL-2 secretion compared to baseline (anti-CD3/anti-CD28 stimulation alone): primary human T cells. In outline: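 Primary human T cells stimulated via TCR with anti-CD3/anti-CD28 in the presence of test compound. IL-2 secretion measured by ELISA; surface CD25 and CD69 by flow cytometry. Values are fold-change versus anti-CD3/anti-CD28 stimulation without compound.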
A general note: An ELISA detects its analyte on a solid surface through an enzyme-linked reagent.

The nature of series [2]: Compound plasma exposure in cyno DRF study. The format is in vivo. The note with it: cynomolgus monkey, po.
Another series concerns Mino cells. The series can be described thus: Cell viability assay (CellTiter-Glo), Mino cells. It is filed as cell-based. The note with it: for EC50: Homo sapiens; for EC50 / EMAX (% viable cells): Mino cells, treatment time 72 h; for potency on cell viability compared with compound 130: MCL cell lines (Mino and Rec-1). The source says:
This example evaluates effects of CTM-mediated degradation on cell viability. […] Mino and Rec-1 are models of Mantle Cell Lymphoma, which is sensitive to IMiDs.
A general note: In ATP-based viability assays light output follows the ATP content of the culture.

The target in a further series is BTK (Homo sapiens, UniProt Q06187). The experiment in a line: BTK degradation (Total BTK HTRF) in Mino cells (Mantle Cell Lymphoma model). Also on record: endogenous in cells; host or cells: TMD8, Mino, Rec-1. It is filed as cell-based. The note with it: treatment time 4 h. Here is the method:
BTK levels were determined using Cisbio Total-BTK HTRF (Homologous Time-Resolved Fluorescence) kit (63ADK064PEG) according to the manufacturer's protocol. Briefly, cells were incubated in 1× supplied lysis buffer for 30 minutes. In an opaque white low volume 96-well plate (Cisbio, 66PL96005), cell lysate was combined with two different specific BTK antibodies, one conjugated with Eu^3+-Cryptate FRET donor and one conjugated with d2 FRET acceptor. Assay controls include wells containing cell lysate with only the Eu^3+-Cryptate FRET donor antibody and wells containing both HTRF antibodies and lysis buffer without cells or control lysate provided by Cisbio. HTRF ratio was calculated as (acceptor signal at 665 nm/donor signal at 620 nm)×10^4. Background HTRF levels were determined from the control well containing the donor, but no acceptor, antibody. Background HTRF levels were subtracted from all samples. Readouts were reported as HTRF levels relative to HTRF levels of DMSO-treated cells. Four-parameter non-linear regressions were performed in GraphPad Prism 7.02 to obtain DC50 values.
BTK Degradation (Total BTK HTRF) at Four Hours in Mino Cells
This example evaluates the potency of CTMs in a model of Mantle Cell Lymphoma (MCL). To evaluate potential therapeutic indications, BTK CTMs were assayed in models of Mantle Cell Lymphoma as with the TMD8 cells (ABC-DLBCL) above. Tested CTMs had similar potencies for BTK degradation in the MCL cell lines (Mino and Rec-1) and TMD8 cells.

The target in a further series is T2, Aiolos (Homo sapiens, UniProt Q96SW2+Q9UKT9).
T2 construct: endogenous in cells; host or cells: Mino, Rec-1
The series can be described thus: Aiolos degradation in Mantle Cell Lymphoma lines (flow cytometry). The format is cell-based. The note with it: for IMiD activity (degradation of IMiD neo-substrates Ikaros and Aiolos): Mantle Cell Lymphoma lines Mino and Rec-1; for DC50: treatment time 24 h. The source says: Ikaros and Aiolos Degradation in Mantle Cell Lymphoma Lines (Ikaros and Aiolos Flow Cytometry)
This example evaluates the IMiD activity of CTMs in cellular models of Mantle Cell Lymphoma (MCL). […] These assays are to determine potency of CTMs for degrading IMiD neo-substrates in cellular models of MCL and to generate data to inform efficacy studies in MCL xenografts.

Setting [3] is: after twenty-four hours, TMD8 and/or MOLT4 cells, FIGS. 10A and 10B.
Where [4] appears, read: 1.4 nM, fold-change of response relative to baseline.
Where [5] appears, read: 37 nM, fold-change of response relative to baseline.
The mark [6] stands for this setting: 333 nM, fold-change of response relative to baseline (stimulation without compound).
The mark [7] stands for this setting: 10 mg/kg, 10 mg/kg PO, 1 day of dosing.
Where [8] appears, read: 30 mg/kg, 30 mg/kg PO, 1 day of dosing.
[9] abbreviates: 100 mg/kg, 100 mg/kg PO, 1 day of dosing.
Where [10] appears, read: 100 mg/kg, 100 mg/kg PO, 14 days of dosing.

SMILES strings stand for the structures. Where two headings read alike, the source gives them in different places. A value given as a limit tells only on which side of the number the result lay.

T2 sequence (Q9UKT9 whole entry): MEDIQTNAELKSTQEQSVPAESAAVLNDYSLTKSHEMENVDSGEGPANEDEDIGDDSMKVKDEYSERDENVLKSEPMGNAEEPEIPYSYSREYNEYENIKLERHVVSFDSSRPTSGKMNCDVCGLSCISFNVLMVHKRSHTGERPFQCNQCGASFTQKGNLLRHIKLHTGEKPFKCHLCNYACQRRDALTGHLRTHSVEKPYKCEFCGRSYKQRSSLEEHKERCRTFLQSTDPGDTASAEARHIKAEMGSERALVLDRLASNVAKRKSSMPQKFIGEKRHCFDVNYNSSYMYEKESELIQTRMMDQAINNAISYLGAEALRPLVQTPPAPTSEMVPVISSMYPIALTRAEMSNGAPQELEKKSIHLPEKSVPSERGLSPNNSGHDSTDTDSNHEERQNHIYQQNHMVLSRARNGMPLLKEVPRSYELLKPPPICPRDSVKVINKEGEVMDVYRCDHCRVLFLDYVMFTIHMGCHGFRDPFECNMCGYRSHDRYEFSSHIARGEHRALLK
T2 sequence (Q96SW2 whole entry): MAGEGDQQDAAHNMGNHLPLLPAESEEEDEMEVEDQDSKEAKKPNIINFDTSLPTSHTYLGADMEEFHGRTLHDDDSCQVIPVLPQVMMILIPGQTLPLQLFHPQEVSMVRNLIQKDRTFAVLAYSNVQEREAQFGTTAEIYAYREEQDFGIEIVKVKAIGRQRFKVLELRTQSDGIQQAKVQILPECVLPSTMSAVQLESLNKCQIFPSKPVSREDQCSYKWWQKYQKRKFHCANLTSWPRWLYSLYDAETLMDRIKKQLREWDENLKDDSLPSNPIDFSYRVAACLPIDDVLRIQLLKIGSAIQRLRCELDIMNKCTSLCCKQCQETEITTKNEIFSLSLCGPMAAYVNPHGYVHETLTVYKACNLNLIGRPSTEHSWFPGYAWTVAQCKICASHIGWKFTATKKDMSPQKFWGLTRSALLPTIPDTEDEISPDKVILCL
T2 sequence (Q16531 whole entry partner): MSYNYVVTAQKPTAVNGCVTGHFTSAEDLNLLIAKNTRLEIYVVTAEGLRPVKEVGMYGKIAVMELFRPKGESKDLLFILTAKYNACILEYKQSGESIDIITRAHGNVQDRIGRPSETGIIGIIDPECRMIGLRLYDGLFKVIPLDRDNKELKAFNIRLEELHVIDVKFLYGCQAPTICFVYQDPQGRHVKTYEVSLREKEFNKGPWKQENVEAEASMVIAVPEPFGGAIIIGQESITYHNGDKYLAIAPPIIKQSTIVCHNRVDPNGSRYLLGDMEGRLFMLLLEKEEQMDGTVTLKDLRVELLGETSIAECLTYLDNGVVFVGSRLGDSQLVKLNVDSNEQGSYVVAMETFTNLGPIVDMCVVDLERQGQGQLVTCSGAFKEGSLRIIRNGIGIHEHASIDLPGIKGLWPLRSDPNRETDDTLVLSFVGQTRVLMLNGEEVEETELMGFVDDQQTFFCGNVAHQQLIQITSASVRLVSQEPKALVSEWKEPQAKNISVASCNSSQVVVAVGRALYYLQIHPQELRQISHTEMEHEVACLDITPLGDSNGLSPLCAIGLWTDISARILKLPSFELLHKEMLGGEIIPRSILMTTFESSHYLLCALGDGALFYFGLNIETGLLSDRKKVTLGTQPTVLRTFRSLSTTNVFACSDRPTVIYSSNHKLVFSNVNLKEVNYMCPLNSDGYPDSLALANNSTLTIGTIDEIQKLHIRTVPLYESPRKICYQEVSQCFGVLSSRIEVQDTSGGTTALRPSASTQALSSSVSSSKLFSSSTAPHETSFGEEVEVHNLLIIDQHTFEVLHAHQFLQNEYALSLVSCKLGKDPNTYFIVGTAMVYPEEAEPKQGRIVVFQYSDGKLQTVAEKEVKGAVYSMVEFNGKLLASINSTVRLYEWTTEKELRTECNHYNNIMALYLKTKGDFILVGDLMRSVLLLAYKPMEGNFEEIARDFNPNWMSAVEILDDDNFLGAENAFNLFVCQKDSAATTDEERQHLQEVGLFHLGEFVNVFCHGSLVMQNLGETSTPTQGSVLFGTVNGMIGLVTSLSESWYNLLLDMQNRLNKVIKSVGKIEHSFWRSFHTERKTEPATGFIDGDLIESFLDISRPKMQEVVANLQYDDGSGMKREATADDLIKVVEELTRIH
Chain of BTK (Q06187 whole entry): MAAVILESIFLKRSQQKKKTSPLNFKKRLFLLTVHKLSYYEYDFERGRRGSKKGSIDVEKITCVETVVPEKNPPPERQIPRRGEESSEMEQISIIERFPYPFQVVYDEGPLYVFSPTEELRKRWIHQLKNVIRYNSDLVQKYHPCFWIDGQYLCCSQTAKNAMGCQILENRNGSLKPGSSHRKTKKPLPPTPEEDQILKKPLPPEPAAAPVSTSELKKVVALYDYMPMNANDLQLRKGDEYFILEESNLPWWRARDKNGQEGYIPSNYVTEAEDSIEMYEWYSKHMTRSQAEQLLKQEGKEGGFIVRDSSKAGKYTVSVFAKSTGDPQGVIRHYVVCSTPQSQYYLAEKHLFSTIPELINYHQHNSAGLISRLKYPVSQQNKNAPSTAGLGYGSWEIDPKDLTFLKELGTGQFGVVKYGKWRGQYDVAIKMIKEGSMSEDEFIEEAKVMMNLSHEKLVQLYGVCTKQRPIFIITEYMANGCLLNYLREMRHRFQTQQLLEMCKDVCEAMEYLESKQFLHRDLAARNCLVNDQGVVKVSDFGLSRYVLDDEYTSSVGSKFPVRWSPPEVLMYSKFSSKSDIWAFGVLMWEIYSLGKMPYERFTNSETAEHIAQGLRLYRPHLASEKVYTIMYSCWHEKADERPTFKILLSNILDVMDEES

What is called EC50 is the concentration giving half of the maximal effect. With `CN1CCN([C@@H]2CCCN(c3cnc(C(N)=O)c(Nc4ccc(C5CCN(CC6CCN(c7ccc8c(=O)n(C9CCC(=O)NC9=O)ccc8c7)CC6)CC5)cc4)n3)C2)C1=O` (stereo partly shown) [Compound 72], the figures for the “effects on ITK levels” value at ITK (FIG. 12) and on ITK (setting [3]) were “slight effects” and “does affect”, respectively. Further, the results for the EC50 in series [1] (read-out: CD69 EC50) and in series [1] (read-out: CD86 EC50) were 0.07 nM and 0.2 nM, respectively.

In general, AUC refers to concentration integrated over time. The low end stands for low exposure, the high end for high exposure. Usually Cmax stands for the highest concentration seen after dosing. For orientation: DC50 means the midpoint of the concentration-degradation curve. Read a low DC50 as a more potent degrader. As to `CN1CCN([C@H]2CCCN(c3cnc(C(N)=O)c(Nc4ccc(C5CCN(CC6CCN(c7ccc(C(=O)NC8CCC(=O)NC8=O)nc7)CC6)CC5)cc4)n3)C2)C1=O` (stereo partly shown) [Compound 130], the “effects on ITK levels” value on ITK (FIG. 12) is given as “slight effects”. Further, the “IL-2 Secretion Anti-CD3/Anti-CD28 Stimulation” value in the series on primary human T cells (setting [4]) is listed as 1.19; in the series on primary human T cells (setting [5]), 1.42; in the series on primary human T cells (setting [6]), 2.02. The AUC was found to be 0.172 µM·h in series [2] (setting [7]), 0.582 µM·h in series [2] (setting [8]) and 3.84 µM·h in series [2] (setting [10]). For the same compound, the Cmax in series [2] (setting [9]) was 96 nM. Also, the EC50 in the series on Mino cells was determined as 176 nM. The “EMAX (% viable cells)” value with Mino cells came out at 78%. Further, the DC50 at BTK is 0.58 nM; at Aiolos (Mino cells), > 2000 nM; at Aiolos (Rec-1 cells), > 2000 nM. Also, the “IMiD activity (degradation of IMiD neo-substrates Ikaros and Aiolos)” value at Aiolos was “not others”.

In the case of `CN1CCN([C@@H]2CCCN(c3cnc(C(N)=O)c(Nc4ccc(C5CCN(C[C@H]6CCN(c7ccc8c(c7)C(=O)N(C7CCC(=O)NC7=O)C8=O)C6)CC5)cc4)n3)C2)C1=O` (stereo partly shown) [Compound 44], the “effect on ITK levels in cells” value on ITK was “some effect”. The “effects on ITK levels” value on ITK (setting [3]) is on record as “some effects”. The “IL-2 Secretion Anti-CD3/Anti-CD28 Stimulation” value with primary human T cells (setting [4]) is 1.43; in the series with primary human T cells (setting [5]), 3.49; with primary human T cells (setting [6]), 3.75. For the same compound, the “IL-2 secretion compared to baseline (anti-CD3/anti-CD28 stimulation alone)” value with primary human T cells is “increased IL-2 secretion but not to the level observed with IMiDs”. Further, the exposure (AUC) amounted to 0.148 µM·h in series [2] (setting [7]), 0.268 µM·h in series [2] (setting [8]) and 1.52 µM·h in series [2] (setting [10]). For the same compound, the Cmax in series [2] (setting [9]) was found to be 22.6 nM. Also, the EC50 was 0.2 nM in series [1] (read-out: CD69 EC50), 0.4 nM in series [1] (read-out: CD86 EC50) and 11.7 nM with Mino cells. Besides, the “potency on cell viability compared with compound 130” value in the series with Mino cells is “more potent”. Further, in the series with Mino cells, the “EMAX (% viable cells)” value amounted to 61%. Moreover, the DC50 came out at 0.56 nM on BTK, 100 nM at Aiolos (Mino cells) and 70 nM on Aiolos (Rec-1 cells).

`CN1CCN([C@@H]2CCCN(c3cnc(C(N)=O)c(Nc4ccc(C5CCN(CC6CCN(c7ccc(-c8nn(C9CCC(=O)NC9=O)c(=O)n8C)cc7)CC6)CC5)cc4)n3)C2)C1=O` (stereo partly shown) [Compound 121]: the “effects on ITK levels” value on ITK (setting [3]) is “minimal effects”. The results for the EC50 in series [1] (read-out: CD69 EC50) and in series [1] (read-out: CD86 EC50) were 0.5 nM and 0.9 nM, respectively.

For `NC(=O)c1ncc(N2CCCCC2)nc1Nc1ccc(C2CCN(C[C@@H]3CCN(c4ccc5c(c4)C(=O)N(C4CCC(=O)NC4=O)C5=O)C3)CC2)cc1` (stereo partly shown) [Compound 149], the “effect on ITK levels in cells” value at ITK is on record as “some effect”. In addition, the “IL-2 Secretion Anti-CD3/Anti-CD28 Stimulation” value came out at 1.86 in the series on primary human T cells (setting [4]), 3.63 in the series on primary human T cells (setting [5]) and 4.24 in the series on primary human T cells (setting [6]). The “IL-2 secretion compared to baseline (anti-CD3/anti-CD28 stimulation alone)” value with primary human T cells is listed as “increased IL-2 secretion but not to the level observed with IMiDs”. In addition, the AUC in series [2] (setting [7]) came to 0.386 µM·h; in series [2] (setting [8]), 0.72 µM·h; in series [2] (setting [10]) it was 2.66 µM·h. This compound also showed a Cmax in series [2] (setting [9]) of 76 nM. Also, in the series on Mino cells, the EC50 was 3.4 nM. The “potency on cell viability compared with compound 130” value in the series with Mino cells is on record as “more potent”. For the same compound, the “EMAX (% viable cells)” value in the series on Mino cells is 50%. For the same compound, the half-maximal degradation concentration (DC50) was 5.9 nM at BTK, 87 nM on Aiolos (Mino cells) and 81 nM on Aiolos (Rec-1 cells). Besides, on Aiolos, the “IMiD activity (degradation of IMiD neo-substrates Ikaros and Aiolos)” value is “demonstrate IMiD activity”.
